The text below walks through data of patent US20030162222A1, “Method for selecting enzyme inhibitors” (priority 2000, published 2003).

The subject of assay [1] is 32D cells which express wt Bcr-Abl. As to the kind of experiment: Proliferation and survival of 32D cells expressing wt Bcr-Abl in the absence of interleukin-3. The assay is classed as cell-based, murine. To be noted: 32D cells expressing Bcr-Abl wt; no interleukin-3; PP1 25 μM or STI571 1 μM. The method, then:
(§1) Bcr-Abl is a constitutionally active tyrosine kinase which induces different forms of leukaemia in the animal model and humans.
(§2) The example is carried out by transfixing 32D cells with a plasmid by electroporation, i.e. with the aid of a current pulse. The plasmid codes for either wt Bcr-Abl or e.g. for the mutant T315M. These plasmids additionally carry a resistance marker; in this case a puromycin resistance gene. Transfixed cells are therefore selected by means of puromycin.
(§3) The cells are then characterised biologically. For this purpose interleukin-3 is removed from them as an essential survival and growth factor.
(§4) Both substances prevent both proliferation and survival of cells which express Bcr-Abl wt, and do so to the same extent (FIGS. 17 and 18).

Assay [2] has as its system 32D cells which express the mutant Bcr-Abl T315M. Description: Proliferation and survival of 32D cells expressing mutant Bcr-Abl T315M in the absence of interleukin-3. The assay is classed as cell-based, murine. Conditions: 32D cells expressing Bcr-Abl T315M; no interleukin-3; PP1 25 μM or STI571 1 μM. The method, then:
as §1, §2, §3, §4

The subject of a further assay is Src kinases. Conditions: partly from the literature; cited from earlier work.

On to `Cc1ccc(-c2nn(C(C)(C)C)c3ncnc(N)c23)cc1` [PP1], for which the proliferation of cells result in assay [1] is reported as “prevent”. The “proliferation (cell growth)” value in assay [2] is on record as “complete cessation of cell growth”. Also, the “inhibition of Src kinases” value in the assay on Src kinases was “inhibited”.
